# Reference: ChEMBL document CHEMBL2203270, “POMA analyses as new efficient bioinformatics' platform to predict and optimise bioactivity of synthesized 3a,4-dihydro-3H-indeno[1,2-c]pyrazole-2-carboxamide/carbothioamide analogues” (Bioorg Med Chem Lett, 2012)
# Columns and labels:
# [1] = tested on: Human immunodeficiency virus 2; assay: Antiviral activity against HIV-2 ROD infected in MT4 cells assessed as protection against virus-induced cytopathicity relative to control; type: functional; conditions: Human immunodeficiency virus 2, ISOLATE ROD
# [2] = tested on: Aspergillus niger; assay: Antimicrobial activity against Aspergillus niger NCIM 1196 by broth dilution technique; type: functional
# [3] = tested on: Human immunodeficiency virus 1; assay: Antiviral activity against HIV-1 3B infected in MT4 cells assessed as protection against virus-induced cytopathicity relative to control; type: functional; conditions: Human immunodeficiency virus 1, 3B
# [4] = tested on: Human immunodeficiency virus 1; assay: Antiviral activity against HIV-1 3B infected in MT4 cells assessed as inhibition of virus-induced cytopathicity; type: functional, organism-based; conditions: Human immunodeficiency virus 1, 3B
# [5] = Cytotoxicity against mock-infected human MT4 cells assessed as decrease in cell viability by MTT assay; type: cell-based
# [6] = tested on: Escherichia coli; assay: Antimicrobial activity against Escherichia coli NCIM 5051 by broth dilution technique; type: functional
# [7] = tested on: Pseudomonas aeruginosa; assay: Antimicrobial activity against Pseudomonas aeruginosa ATCC 10145 by broth dilution technique; type: functional
# [8] = tested on: Bacillus subtilis; assay: Antimicrobial activity against Bacillus subtilis NCIM 2439 by broth dilution technique; type: functional
# [9] = tested on: Human immunodeficiency virus 2; assay: Antiviral activity against HIV-2 ROD infected in MT4 cells assessed as inhibition of virus-induced cytopathicity; type: functional, organism-based; conditions: Human immunodeficiency virus 2, ISOLATE ROD
# [10] = tested on: Staphylococcus aureus; assay: Antimicrobial activity against Staphylococcus aureus NCIM 2079 by broth dilution technique; type: functional
# [11] = tested on: Candida albicans; assay: Antimicrobial activity against Candida albicans NCIM 3471 by broth dilution technique; type: functional
Compound,MIC [2] [µg/mL],IC50 [4] [µM],MIC [6] [µg/mL],MIC [7] [µg/mL],MIC [8] [µg/mL],IC50 [9] [µM],MIC [10] [µg/mL],MIC [11] [µg/mL],Emax [1] [%],MFC [2] [µg/mL],Emax [3] [%],CC50 [5] [µM],MBC [6] [µg/mL],MBC [7] [µg/mL],MBC [8] [µg/mL],MBC [10] [µg/mL],MFC [11] [µg/mL]
COc1ccc(C2C3Cc4cc(OC)c(OC)cc4C3=NN2C(=O)Nc2c(C)cccc2C)cc1OC (stereo not given),,> 182,,,,> 182,,,37,,11,182,,,,,
COc1cc2c(cc1OC)C1=NN(C(=O)Nc3ccc(Br)cc3)C(c3ccccc3Cl)C1C2 (stereo not given),,> 11.5,,,,> 11.5,,,2,,2,11.5,,,,,
COc1cc2c(cc1OC)C1=NN(C(=O)Nc3c(C)cccc3C)C(c3ccccc3Cl)C1C2 (stereo not given),,> 159,,,,> 159,,,9,,4,159,,,,,
COc1cc2c(cc1OC)C1=NN(C(=O)Nc3ccc(Cl)cc3)C(c3ccccc3)C1C2 (stereo not given),,> 28.4,,,,> 28.4,,,19,,2,28.4,,,,,
COc1cc2c(cc1OC)C1=NN(C(=O)Nc3c(C)cccc3C)C(c3ccccc3)C1C2 (stereo not given),,> 211,,,,> 211,,,12,,4,211,,,,,
COc1cc2c(cc1OC)C1=NN(C(=O)Nc3ccc(Br)cc3)C(c3ccncc3)C1C2 (stereo not given),,> 26.5,,,,> 26.5,,,1,,1,26.5,,,,,
COc1cc2c(cc1OC)C1=NN(C(=O)Nc3ccc(C)cc3C)C(c3ccccc3)C1C2 (stereo not given),,> 33.4,,,,> 33.4,,,7,,5,33.4,,,,,

# Now from value to compound, other results behind:
MIC [2] [µg/mL],IC50 [4] [µM],MIC [6] [µg/mL],MIC [7] [µg/mL],MIC [8] [µg/mL],IC50 [9] [µM],MIC [10] [µg/mL],MIC [11] [µg/mL],Compound,Emax [1] [%],MFC [2] [µg/mL],Emax [3] [%],CC50 [5] [µM],MBC [6] [µg/mL],MBC [7] [µg/mL],MBC [8] [µg/mL],MBC [10] [µg/mL],MFC [11] [µg/mL]
256,> 40.4,8,16,16,> 40.4,16,256,COc1cc2c(cc1OC)C1=NN(C(N)=O)C(c3ccncc3)C1C2 (stereo not given),5,> 512,4,40.4,> 512,> 512,> 512,> 512,> 512
128,> 151,8,8,8,> 151,8,128,COc1cc2c(cc1OC)C1=NN(C(N)=O)C(c3ccc(F)cc3)C1C2 (stereo not given),9,> 512,3,151,16,16,16,16,> 512
32,> 151,64,128,128,> 151,128,32,COc1ccc(C2C3Cc4cc(OC)c(OC)cc4C3=NN2C(N)=O)cc1OC (stereo not given),30,512,6,151,> 512,> 512,> 512,> 512,512
64,> 39.9,4,4,4,> 39.9,4,32,COc1cc2c(cc1OC)C1=NN(C(N)=S)C(c3ccc(F)cc3)C1C2 (stereo not given),9,> 512,5,39.9,8,8,8,8,> 512
,> 136,,,,> 136,,,COc1ccc(C2C3Cc4cc(OC)c(OC)cc4C3=NN2C(=O)Nc2ccc(Br)cc2)cc1 (stereo not given),5,,3,136,,,,,
,> 132,,,,> 132,,,COc1ccc(C2C3Cc4cc(OC)c(OC)cc4C3=NN2C(=O)Nc2ccc(F)cc2)cc1 (stereo not given),9,,7,132,,,,,
,> 119,,,,> 119,,,COc1cc2c(cc1OC)C1=NN(C(=O)Nc3ccc(F)cc3)C(c3ccc(F)cc3)C1C2 (stereo not given),14,,4,119,,,,,
,> 9.36,,,,> 9.36,,,COc1cc2c(cc1OC)C1=NN(C(=O)Nc3c(C)cccc3C)C(c3ccc(F)cc3)C1C2 (stereo not given),4,,3,9.36,,,,,
128,> 36.9,32,32,32,> 36.9,32,128,COc1cc2c(cc1OC)C1=NN(C(N)=S)C(c3ccncc3)C1C2 (stereo not given),3,> 512,2,36.9,> 512,> 512,> 512,> 512,> 512
,> 9.09,,,,> 9.09,,,COc1cc2c(cc1OC)C1=NN(C(=O)Nc3ccc(F)cc3)C(c3ccccc3Cl)C1C2 (stereo not given),1,,2,9.09,,,,,
